The source of these data is patent US7932270B2 (Cytokinetics, Inc., priority 2006, dated 2011).

T1 sequence (P02607 2-151): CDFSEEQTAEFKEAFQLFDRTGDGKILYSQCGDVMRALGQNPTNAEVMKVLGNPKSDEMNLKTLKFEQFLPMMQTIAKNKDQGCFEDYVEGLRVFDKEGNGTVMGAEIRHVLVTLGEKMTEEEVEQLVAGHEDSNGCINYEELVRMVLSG
T1 sequence (P10587 84-789): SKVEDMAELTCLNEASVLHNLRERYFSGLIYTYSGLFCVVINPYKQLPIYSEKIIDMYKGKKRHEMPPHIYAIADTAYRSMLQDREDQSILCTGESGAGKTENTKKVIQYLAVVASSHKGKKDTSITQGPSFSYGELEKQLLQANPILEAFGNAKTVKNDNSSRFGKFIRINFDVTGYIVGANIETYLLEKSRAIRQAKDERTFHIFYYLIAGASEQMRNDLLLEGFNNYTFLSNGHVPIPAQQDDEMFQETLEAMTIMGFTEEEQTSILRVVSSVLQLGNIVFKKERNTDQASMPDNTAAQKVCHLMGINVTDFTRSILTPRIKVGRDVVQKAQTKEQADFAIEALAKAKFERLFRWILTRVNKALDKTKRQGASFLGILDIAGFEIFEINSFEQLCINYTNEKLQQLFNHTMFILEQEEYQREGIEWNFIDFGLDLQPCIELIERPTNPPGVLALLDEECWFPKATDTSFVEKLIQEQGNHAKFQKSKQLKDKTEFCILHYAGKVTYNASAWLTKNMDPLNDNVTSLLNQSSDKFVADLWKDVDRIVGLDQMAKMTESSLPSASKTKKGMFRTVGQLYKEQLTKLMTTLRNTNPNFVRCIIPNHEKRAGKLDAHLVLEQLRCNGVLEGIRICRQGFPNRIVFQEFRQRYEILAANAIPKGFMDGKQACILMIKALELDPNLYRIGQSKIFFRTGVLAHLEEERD

This test concerns the target T1, chicken gizzard smooth muscle myosin subfragment-1 chemically crosslinked to cardiac or skeletal actin (Gallus gallus, UniProt P10587).
T1 construct: chicken gizzard smooth muscle myosin subfragment-1; from tissue; host or cells: chicken gizzard
Description: Smooth muscle myosin ATPase dose response assay (pyruvate kinase/horseradish peroxidase/pyruvate oxidase-coupled, amplex red fluorescence). The class given is biochemical. The conditions noted are these: read-out: IC50 Arithmetic Mean. Put shortly:
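Amplex red fluorescence (480 nm excitation, 615 nm emission) tracked ATP hydrolysis by smooth muscle S1 crosslinked to actin with carbodiimide/N-hydroxysuccinimide. Reactions contained 0.15 mM ATP and 100 mM KCl at pH 7.00, 22° C. IC50 came from a four-parameter logistic fit.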
`N#Cc1ccccc1-c1ccc(C(=O)NC[C@H]2CCN2C(=O)[C@H](N)CO)c(NCCc2cccc(F)c2)n1` [N-{[(2R)-1-((2R)-2-amino-3-hydroxypropanoyl)azetidin-2-yl]methyl}(6-(2-cyanophenyl)-2-{[2-(3-fluorophenyl)ethyl]amino}(3-pyridyl))carboxamide]: the IC50 stood at 83 nM.

Take `Cn1cc(-c2nc(NCCc3cccc(F)c3)c(C(=O)NCc3cccnc3CNC(=O)OC(C)(C)C)cc2Cl)cn1` [N-[(2-{[(tert-butoxy)carbonylamino]methyl}(3-pyridyl))methyl](5-chloro-2-{[2-(3-fluorophenyl)ethyl]amino}-6-(1-methylpyrazol-4-yl)(3-pyridyl))carboxamide]: the IC50 amounted to 414 nM.

On to `N#Cc1ccccc1-c1ccc(C(=O)NC[C@H]2CCCN2C(=O)CCCN)c(NCCC2=CCCCC2)n1` [N-{[(2R)-1-(4-aminobutanoyl)pyrrolidin-2-yl]methyl}{6-(2-cyanophenyl)-2-[(2-cyclohex-1-enylethyl)amino](3-pyridyl)}carboxamide], for which the 50% inhibitory concentration (IC50) turned out to be 133 nM.

Turning to `Cn1cc(-c2ccc(C(=O)NC[C@H]3CCCN3C(=O)CCNC(=O)OC(C)(C)C)c(NCCc3cccc(F)c3)n2)cn1` [N-[((2R)-1-{3-[(tert-butoxy)carbonylamino]propanoyl}pyrrolidin-2-yl)methyl](2-{[2-(3-fluorophenyl)ethyl]amino}-6-(1-methylpyrazol-4-yl)(3-pyridyl))carboxamide], the IC50 turned out to be 5030 nM.

With `COC(=O)[C@H](C)CNC(=O)c1cc(F)c(-c2cn[nH]c2)nc1NCCc1cccc(F)c1` [methyl (2R)-3-[(5-fluoro-2-{[2-(3-fluorophenyl)ethyl]amino}-6-pyrazol-4-yl(3-pyridyl))carbonylamino]-2-methylpropanoate], the half-inhibitory concentration (IC50) came out at 73 nM.

As for `C[C@H](CNC(=O)c1cc(F)c(-c2cnn(C)c2)nc1NCCc1cccc(F)c1)NC(=O)CN(C)C`, the IC50 is 121 nM.

Consider `O=C1CNC[C@@H](CNC(=O)c2ccc(-c3cc[nH]n3)nc2NCCc2cccc(F)c2)N1` [N-[((2S)-6-oxopiperazin-2-yl)methyl](2-{[2-(3-fluorophenyl)ethyl]amino}-6-pyrazol-3-yl(3-pyridyl))carboxamide], for which the half-inhibitory concentration (IC50) was found to be 6390 nM.

With `COC(=O)[C@@H](CN)NC(=O)c1ccc(-c2ccccc2C#N)nc1NCCc1cccc(F)c1` [methyl (2R)-3-amino-2-[(6-(2-cyanophenyl)-2-{[2-(3-fluorophenyl)ethyl]amino}(3-pyridyl))carbonylamino]propanoate], the IC50 was 2380 nM.

As to `O=C(NCc1cccnc1)c1ccc(-c2ccc(F)c(F)c2)nc1NCCc1ccccn1` [{6-(3,4-difluorophenyl)-2-[(2-(2-pyridyl)ethyl)amino](3-pyridyl)}-N-(3-pyridylmethyl)carboxamide], the IC50 was 1210 nM.

In the case of `N#Cc1ccccc1-c1ccc(C(=O)NCc2cccnc2)c(NCCc2cc(F)cc(F)c2)n1` [(2-{[2-(3,5-difluorophenyl)ethyl]amino}-6-(2-cyanophenyl)(3-pyridyl))-N-(3-pyridylmethyl)carboxamide], the IC50 stood at 41 nM.

With `COC(=O)[C@@H](CO)NC(=O)c1ccc(-c2ccccc2C#N)nc1NCCc1cccc(F)c1` [methyl (2R)-2-[(6-(2-cyanophenyl)-2-{[2-(3-fluorophenyl)ethyl]amino}(3-pyridyl))carbonylamino]-3-hydroxypropanoate], the IC50 turned out to be 513 nM.

Take `N#Cc1ccccc1-c1ccc(C(=O)NC[C@H]2CNCCN2C(=O)CN)c(NCCc2cccc(F)c2)n1` [N-{[(2R)-1-(2-aminoacetyl)piperazin-2-yl]methyl}(6-(2-cyanophenyl)-2-{[2-(3-fluorophenyl)ethyl]amino}(3-pyridyl))carboxamide]: the concentration for half-maximal inhibition (IC50) turned out to be 2780 nM.

Take `N#Cc1ccccc1-c1ccc(C(=O)NC[C@H]2CCN2C(=O)CN)c(NCCc2cccc(F)c2)n1` [N-{[(2R)-1-(2-aminoacetyl)azetidin-2-yl]methyl}(6-(2-cyanophenyl)-2-{[2-(3-fluorophenyl)ethyl]amino}(3-pyridyl))carboxamide]: the IC50 worked out at 44 nM.

As to `CC(C)(C)OC(=O)N[C@@H](CO)C(=O)N1CCC[C@@H]1CNC(=O)c1cc(F)c(-c2cn[nH]c2)nc1NCCc1cccc(F)c1` [N-[((2R)-1-{(2S)-2-[(tert-butoxy)carbonylamino]-3-hydroxypropanoyl}pyrrolidin-2-yl)methyl](5-fluoro-2-{[2-(3-fluorophenyl)ethyl]amino}-6-pyrazol-4-yl(3-pyridyl))carboxamide], the IC50 was determined as 1000 nM.

`O=C(NCc1cccnc1)c1ccc(-c2nccs2)nc1NCCc1ccccn1` [{2-[(2-(2-pyridyl)ethyl)amino]-6-(1,3-thiazol-2-yl)(3-pyridyl)}-N-(3-pyridylmethyl)carboxamide]: the IC50 was 8660 nM.

As to `CC[C@H](CNC(=O)c1cc(F)c(-c2cnn(C)c2)nc1NCCc1cccc(F)c1)C(=O)OC` [methyl (2R)-2-{[(5-fluoro-2-{[2-(3-fluorophenyl)ethyl]amino}-6-(1-methylpyrazol-4-yl)(3-pyridyl))carbonylamino]methyl}butanoate], the concentration for half-maximal inhibition (IC50) was found to be 117 nM.

For `CC(C)(C)OC(=O)NCCCN1CCCC1CNC(=O)c1ccc(-c2ccccc2C#N)nc1NCCc1cccc(F)c1` (centres unmarked) [N-[(1-{3-[(tert-butoxy)carbonylamino]propyl}pyrrolidin-2-yl)methyl](6-(2-cyanophenyl)-2-{[2-(3-fluorophenyl)ethyl]amino}(3-pyridyl))carboxamide], the IC50 was 2080 nM.

As for `CN(CCNC(=O)c1ccc(-c2ccccc2C#N)nc1NCCc1cccc(F)c1)C(=O)CCCN` [4-amino-N-{2-[(6-(2-cyanophenyl)-2-{[2-(3-fluorophenyl)ethyl]amino}(3-pyridyl))carbonylamino]ethyl}-N-methylbutanamide], the half-inhibitory concentration (IC50) came to 1200 nM.

Consider `N#Cc1ccccc1-c1ccc(C(=O)NCc2cccc(CN)n2)c(NCCc2cccc(F)c2)n1` [N-{[6-(aminomethyl)(2-pyridyl)]methy}(6-(2-cyanophenyl)-2-{[2-(3-fluorophenyl)ethyl]amino}(3-pyridyl))carboxamide], for which the IC50 worked out at 9 nM.

For the compound `CS(=O)(=O)NCC1CCCCN1C(=O)c1ccc(-c2ccccc2)nc1NCCc1ccccn1` (centres unmarked) [2-{[(methylsulfonyl)amino]methyl}piperidyl 6-phenyl-2-[(2-(2-pyridyl)ethyl)amino](3-pyridyl) ketone], the IC50 was 22200 nM.

In the case of `N#Cc1ccccc1-c1ccc(C(=O)N[C@H](CCCN)C(N)=O)c(NCCc2cccc(F)c2)n1` [N-((1R)-4-amino-1-carbamoylbutyl)(6-(2-cyanophenyl)-2-{[2-(3-fluorophenyl)ethyl]amino}(3-pyridyl))carboxamide], the 50% inhibitory concentration (IC50) was 7410 nM.

Consider `N#Cc1ccccc1-c1nc(NCCc2cccc(F)c2)c(C(=O)NC[C@H]2CCCN2C(=O)CN)cc1F` [N-{[(2R)-1-(2-aminoacetyl)pyrrolidin-2-yl]methyl}(6-(2-cyanophenyl)-5-fluoro-2-{[2-(3-fluorophenyl)ethyl]amino}(3-pyridyl))carboxamide], for which the IC50 is 40 nM.

Take `CCc1ccc(-c2ccc(C(=O)NCc3cccnc3)c(NCCc3ccccn3)n2)cc1` [{6-(4-ethylphenyl)-2-[(2-(2-pyridyl)ethyl)amino](3-pyridyl)}-N-(3-pyridylmethyl)carboxamide]: the IC50 is 2790 nM.

For the compound `CC(=O)N1CCCC[C@@H]1CNC(=O)c1ccc(-c2ccccc2C#N)nc1NCCc1cccc(F)c1` [N-[((2R)-1-acetyl(2-piperidyl))methyl](6-(2-cyanophenyl)-2-{[2-(3-fluorophenyl)ethyl]amino}(3-pyridyl))carboxamide], the 50% inhibitory concentration (IC50) worked out at 2680 nM.

With `O=C1CCCCC(CNC(=O)c2ccc(-c3cn[nH]c3)nc2NCCc2cccc(F)c2)N1` (centres unmarked) [(2-{[2-(3-fluorophenyl)ethyl]amino}-6-pyrazol-4-yl(3-pyridyl))-N-[(7-oxoazaperhydroepin-2-yl)methyl]carboxamide], the IC50 turned out to be 687 nM.

`COP(=O)(OC)OCC(=O)N1CC[C@@H]1CNC(=O)c1cc(F)c(-c2cnn(C)c2)nc1NCCc1cccc(F)c1` [2-((2R)-2-{[(5-fluoro-2-{[2-(3-fluorophenyl)ethyl]amino}-6-(1-methylpyrazol-4-yl)(3-pyridyl))carbonylamino]methyl}azetidinyl)-2-oxoethyl dimethyl phosphate]: the IC50 stood at 400 nM.

`N#Cc1ccccc1-c1ccc(C(=O)NC[C@@H](CO)NC(=O)CN)c(NCCc2cccc(F)c2)n1` [N-((1S)-1-{[(6-(2-cyanophenyl)-2-{[2-(3-fluorophenyl)ethyl]amino}(3-pyridyl))carbonylamino]methyl}-2-hydroxyethyl)-2-aminoacetamide]: the half-maximal inhibitory concentration (IC50) is 249 nM.

For `Cn1cc(-c2nc(NCCc3cccc(F)c3)c(C(=O)NCCCNC(=O)OC(C)(C)C)cc2F)cn1` [N-{3-[(tert-butoxy)carbonylamino]propyl}(5-fluoro-2-{[2-(3-fluorophenyl)ethyl]amino}-6-(1-methylpyrazol-4-yl)(3-pyridyl))carboxamide], the IC50 came out at 4500 nM.

Consider `CC(=O)N1CCC(CNC(=O)c2ccc(-c3ccccc3)nc2NCCc2ccccn2)CC1` [N-[(1-acetyl(4-piperidyl))methyl]{6-phenyl-2-[(2-(2-pyridyl)ethyl)amino](3-pyridyl)}carboxamide], for which the 50% inhibitory concentration (IC50) amounted to 96700 nM.

With “(2-{[2-(2-oxoimidazolidinyl)ethyl]amino}-6-phenyl(3-pyridyl))-N-(3-pyridylmethyl)carboxamide”, the IC50 is 70600 nM.

With `N#Cc1ccccc1-c1ccc(C(=O)NC[C@@H]2CCC(=O)N2CCCN)c(NCCc2cccc(F)c2)n1` [N-{[(2S)-1-(3-aminopropyl)-5-oxopyrrolidin-2-yl]methyl}(6-(2-cyanophenyl)-2-{[2-(3-fluorophenyl)ethyl]amino}(3-pyridyl))carboxamide], the IC50 was found to be 431 nM.

Turning to `C[C@H](CNC(=O)c1ccc(-c2ccccc2C#N)nc1NCCc1cccc(F)c1)N(C)S(C)(=O)=O` [N-{(2R)-2-[methyl(methylsulfonyl)amino]propyl}(6-(2-cyanophenyl)-2-{[2-(3-fluorophenyl)ethyl]amino}(3-pyridyl))carboxamide], the IC50 was found to be 7070 nM.

In general, IC50 refers to the midpoint of a concentration-inhibition curve.
